From patent US20260026499A1 (priority 2022, published 2026)
Values after ≈ are worked out from the molar mass of the structure shown.

Tested on: tebuconazole-resistant Fusarium graminearum (TR)
Experiment: microbe, parasite or virus in culture
Assay type: cell-based
Conditions: for EC50: Fusarium graminearum, 72 h; for ATI: ZJS178 as standard reagent, TR strain

## CCOC(=O)/C(C#N)=C(\N)c1ccc(N(C)CC)cc1 [ZJS178 (A), ethyl 2-cyano-3-amino-3-[4-(N-ethyl-N-methylamino)phenyl]acrylate]
  EC50: 0.0356 µg/mL (≈ 0.13 µM)
  ATI: 100.00

## CC(C)(C)C(O)(CCc1ccc(Cl)cc1)Cn1cncn1 (racemic) [Tebuconazole (B), (RS)-1-p-chlorophenyl-4,4-dimethyl-3-(1H-1,2,4-triazol-1-ylmethyl)pentan-3-ol, reference compound]
  EC50: 1.52 µg/mL (≈ 4.95 µM)
  ATI: 2.34
